These results are taken from ChEMBL document CHEMBL2331411, “Pyrrolopyrimidine inhibitors of DNA gyrase B (GyrB) and topoisomerase IV (ParE). Part I: Structure guided discovery and optimization of dual targeting agents with potent, broad-spectrum enzymatic activity” (Bioorg Med Chem Lett, 2013).

The test system of assay [1] is Staphylococcus aureus. The assay can be described thus: Antibacterial activity against Staphylococcus aureus assessed as growth inhibition. In kind it is functional.
Assay [2] can be described thus: Inhibition of Enterococcus faecalis DNA gyrase subunit B using ATP as substrate assessed as release of inorganic phosphate incubated for 10 mins prior to substrate addition measured after 30 mins by spectrophotometric analysis.
Assay [3] can be described thus: Inhibition of Escherichia coli DNA topoisomerase 4 subunit B using ATP as substrate assessed as release of inorganic phosphate incubated for 10 mins prior to substrate addition measured after 30 mins by spectrophotometric analysis.
Assay [4] in a line: Inhibition of Enterococcus faecalis DNA topoisomerase 4 subunit B using ATP as substrate assessed as release of inorganic phosphate incubated for 10 mins prior to substrate addition measured after 30 mins by spectrophotometric analysis.
Assay [5] is described as follows: Inhibition of Francisella tularensis DNA topoisomerase 4 subunit B using ATP as substrate assessed as release of inorganic phosphate incubated for 10 mins prior to substrate addition measured after 30 mins by spectrophotometric analysis.
A short description of assay [6]: Inhibition of Francisella tularensis DNA gyrase subunit B using ATP as substrate assessed as release of inorganic phosphate incubated for 10 mins prior to substrate addition measured after 30 mins by spectrophotometric analysis.
The nature of assay [7]: Inhibition of Acinetobacter baumannii DNA topoisomerase 4 subunit B using ATP as substrate assessed as release of inorganic phosphate incubated for 10 mins prior to substrate addition measured after 30 mins by spectrophotometric analysis.

Values after ≈ are worked out from the molar mass of the structure shown. A value given as a limit tells only on which side of the number the result lay.

As usually defined, the MIC is the lowest concentration that inhibits growth of the organism. The Ki is a dissociation constant, usually derived from enzyme kinetics or from competition with a known ligand. For the compound `CCc1cc2c(Cl)nc(Sc3cccnc3)nc2[nH]1`, the MIC in assay [1] was more than 64 µg/mL. Moreover, the Ki in assay [2] was more than 50000 nM.

Regarding `CCc1[nH]c2nc(Sc3cnc4nccnc4c3)nc(N3C[C@H]4CCCN[C@H]4C3)c2c1Cl`, the Ki in assay [3] was 17 nM; in assay [4], 29 nM; in assay [5] it was 10 nM; in assay [2] it was 9 nM; in assay [6], less than 1 nM.

In the case of `CCc1[nH]c2nc(Sc3ccc4c(N5CCC(N)C5)cc(C(=O)O)nc4c3)nc(N3CC[C@@H](N)C3)c2c1Cl` (some centres not stated), the Ki is 7 nM in assay [3], 19 nM in assay [4], 6 nM in assay [5] and less than 1 nM in assay [2].

`CCc1[nH]c2nc(Sc3cnc4nccnc4c3)nc(N3CC(N)C3)c2c1Cl`: the Ki came to 39 nM in assay [3]; 65 nM in assay [4]; 4 nM in assay [5]; 4 nM in assay [2]; 7 nM in assay [6].

With `CCc1[nH]c2nc(Sc3cccnc3)nc(OC)c2c1C=O`, the Ki in assay [4] was determined as 1200 nM; in assay [5], 900 nM; in assay [2], 200 nM; in assay [6], 800 nM.

For the compound `CCc1[nH]c2nc(Sc3cncnc3)nc(N3CC4C(N)C4C3)c2c1Cl` (configuration not stated), the Ki in assay [3] was 36 nM; in assay [4], 79 nM; in assay [5], 15 nM; in assay [2] it was 5 nM; in assay [6] it was 2 nM.

For the compound `CCc1[nH]c2nc(Oc3cnc4cccnc4c3)nc(N3CC4C(N)C4C3)c2c1Cl` (configuration not stated), the Ki in assay [3] was less than 1 nM; in assay [4], 3 nM; in assay [2] it was less than 1 nM.

Turning to `CCc1[nH]c2nc(Sc3cnc4nccnc4c3)nc(N3C[C@H]4CCN[C@H]4C3)c2c1Cl`, the Ki in assay [3] was 6 nM; in assay [4] it was 19 nM; in assay [5] it was 9 nM; in assay [2], 6 nM; in assay [6], less than 1 nM.

Regarding `CCc1[nH]c2nc(Sc3cnc4nccnc4c3)nc(N3CC[C@@H](N)C3)c2c1Cl`, the Ki is 11 nM in assay [3]; 23 nM in assay [4]; 4 nM in assay [5]; 2 nM in assay [2]; less than 1 nM in assay [6].

On to `CCc1[nH]c2nc(Sc3cnc4nccnc4c3)nc(N3CCC(N)CC3)c2c1Cl`, for which the Ki in assay [3] is 36 nM; in assay [4] it was 69 nM; in assay [5] it was 6 nM; in assay [2] it was less than 1 nM; in assay [6], 3 nM.

Consider `CCc1[nH]c2nc(Sc3cnc4cccnc4c3)nc(N3CC4C(N)C4C3)c2c1Cl` (configuration not stated), for which the Ki in assay [3] was 1 nM; in assay [4], 10 nM; in assay [5] it was 2 nM; in assay [2] it was 1 nM; in assay [6], less than 1 nM.

Take `CCc1[nH]c2nc(Sc3cccnc3)nc(Cl)c2c1C=O`: in assay [1], the MIC amounted to 64 µg/mL (≈ 201 µM). Besides, the Ki was determined as 3700 nM in assay [4], 8700 nM in assay [5], 800 nM in assay [2] and 1200 nM in assay [6].

Consider `CCc1[nH]c2nc(Sc3cccnc3)nc(Cl)c2c1Br`, for which, in assay [1], the minimum inhibitory concentration (MIC) was 2 µg/mL (≈ 5.41 µM). The Ki in assay [4] is 3500 nM; in assay [5], 1200 nM; in assay [2] it was 300 nM; in assay [6], 400 nM.

Consider `CCc1[nH]c2nc(Sc3ccc4nc(N)n[n+]([O-])c4c3)nc(N3CC[C@@H](N)C3)c2c1Cl`, for which the figures for the Ki in assay [3], in assay [4] and in assay [2] were 2 nM, 7 nM and less than 1 nM, respectively.

For the compound `CCc1[nH]c2nc(Sc3cnc4nccnc4c3)nc(N3CC4C(N)C4C3)c2c1Cl` (configuration not stated), the Ki in assay [3] was less than 1 nM; in assay [4] it was 4 nM; in assay [2] it was less than 1 nM.

In the case of `CCc1[nH]c2nc(Sc3ccc4[nH]cc(C(=O)O)c(=O)c4c3)nc(N3CC[C@@H](N)C3)c2c1Cl`, the results for the Ki in assay [3], in assay [4] and in assay [2] were less than 1 nM, 6 nM and less than 1 nM, respectively.

Consider `CCc1[nH]c2nc(Sc3ccc4nc[nH]c(=O)c4c3)nc(N3CC[C@@H](N)C3)c2c1Cl`, for which the Ki in assay [3] is 4 nM; in assay [4], 14 nM; in assay [5] it was 2 nM; in assay [2] it was less than 1 nM.

In the case of `CCc1[nH]c2nc(Sc3ccc4cncnc4c3)nc(N3CC[C@@H](N)C3)c2c1Cl`, the Ki was 5 nM in assay [3], 7 nM in assay [4], 2 nM in assay [5] and less than 1 nM in assay [2].

Turning to `CCc1[nH]c2nc(Sc3cnc4nccnc4c3)nc(N3C[C@H]4CN[C@H]4C3)c2c1Cl`, the Ki is 2 nM in assay [3], 9 nM in assay [4], 1 nM in assay [5] and less than 1 nM in assay [2].

For `CCc1[nH]c2nc(Sc3ccc4c(c3)C(=O)NC4)nc(N3CC[C@@H](N)C3)c2c1Cl`, the Ki in assay [3] amounted to 11 nM; in assay [4] it was 19 nM; in assay [5], 2 nM; in assay [2] it was 7 nM; in assay [6], 9 nM.

Regarding `CCc1[nH]c2nc(Oc3cncnc3)nc(N3CC[C@@H](N)C3)c2c1Cl`, the Ki was 38 nM in assay [3]; 84 nM in assay [4]; 15 nM in assay [5]; less than 1 nM in assay [2]; 3 nM in assay [6].

Turning to `CCc1[nH]c2nc(Sc3cccnc3)nc(Cl)c2c1C(C)=O`, the MIC in assay [1] amounted to 64 µg/mL (≈ 192 µM). Further, the inhibition constant Ki in assay [4] is 1000 nM; in assay [5], more than 20000 nM; in assay [2], 2000 nM; in assay [6], 6600 nM.

Take `CCc1[nH]c2nc(Sc3cncnc3)nc(N3CC[C@@H](N)C3)c2c1Cl`: the Ki in assay [3] amounted to 127 nM; in assay [4], 157 nM; in assay [5], 36 nM; in assay [2], 4 nM; in assay [6], 8 nM.

For the compound `CCc1[nH]c2nc(Sc3cccnc3)nc(Cl)c2c1Cl`, the MIC in assay [1] was determined as 4 µg/mL (≈ 12.3 µM). In addition, the Ki in assay [4] came to 3500 nM; in assay [7], 2000 nM; in assay [2] it was 400 nM; in assay [6] it was 500 nM.

As for `CCc1[nH]c2nc(Sc3ccc4cc5c(nc4c3)C(=O)OC5)nc(N3CC[C@@H](N)C3)c2c1Cl`, the Ki in assay [3] is less than 1 nM; in assay [4], less than 1 nM; in assay [5] it was 2 nM; in assay [2] it was less than 1 nM.

Turning to `CCc1[nH]c2nc(Sc3cnc4cccnc4c3)nc(N3CC[C@@H](N)C3)c2c1Cl`, the Ki in assay [3] is less than 1 nM; in assay [4] it was 2 nM; in assay [2], less than 1 nM.

Consider `CCc1[nH]c2nc(Sc3cnc4ccc[n+]([O-])c4c3)nc(N3CC[C@@H](N)C3)c2c1Cl`, for which the Ki in assay [3] is 5 nM; in assay [4], 5 nM; in assay [5], 1 nM; in assay [2], less than 1 nM.

Take `CCc1[nH]c2nc(Oc3cncnc3)nc(N3CC4C(N)C4C3)c2c1Cl` (configuration not stated): the Ki in assay [3] was 4 nM; in assay [4], 10 nM; in assay [5], 2 nM; in assay [2] it was less than 1 nM.

`CCc1[nH]c2nc(Sc3cnc4ncc(=O)[nH]c4c3)nc(N3CC[C@@H](N)C3)c2c1Cl`: the Ki in assay [3] was 11 nM; in assay [4] it was 13 nM; in assay [5] it was 6 nM; in assay [2], less than 1 nM; in assay [6], 1 nM.

Take `CCc1[nH]c2nc(Sc3ccc4ccc[n+]([O-])c4c3)nc(N3CC[C@@H](N)C3)c2c1Cl`: the Ki was 7 nM in assay [3], 15 nM in assay [4], 3 nM in assay [5] and less than 1 nM in assay [2].

With `CCc1[nH]c2nc(Sc3cccnc3)nc(Cl)c2c1C(F)F`, in assay [1], the MIC came to 64 µg/mL (≈ 188 µM). Also, the Ki in assay [4] stood at 1200 nM; in assay [5], 400 nM; in assay [2], 1700 nM; in assay [6] it was 500 nM.

Consider `CCc1[nH]c2nc(Sc3cnc4[nH][nH]c(=O)c4c3)nc(N3CC[C@@H](N)C3)c2c1Cl`, for which the Ki in assay [3] was determined as 6 nM; in assay [4] it was 24 nM; in assay [5] it was 4 nM; in assay [2], 6 nM; in assay [6], 5 nM.

Turning to `CCc1[nH]c2nc(Sc3ccc4cccnc4c3)nc(N3CC[C@@H](N)C3)c2c1Cl`, the Ki was 80 nM in assay [3]; 148 nM in assay [4]; 27 nM in assay [5]; 4 nM in assay [2]; 10 nM in assay [6].

Take `CCc1[nH]c2nc(Sc3ccc4ccc(C(=O)O)nc4c3)nc(N3CC[C@@H](N)C3)c2c1Cl`: the Ki in assay [3] was 2 nM; in assay [4] it was 4 nM; in assay [5], 4 nM; in assay [2], less than 1 nM.
